Common to all, as to test: NCI anticancer screen, dose series, 48 h
Experiment [1] concerns MALME-3M melanoma.
Experiment [2] deals with OVCAR-4 ovarian.
Experiment [3] concerns IGROV1 ovarian.
In experiment [4] the test system is SF-539 CNS.
Experiment [5] has as its system UACC-62 melanoma.
The subject of experiment [6] is NCI-H226 lung.
Experiment [7] concerns SF-295 CNS.
Experiment [8] concerns HCT-116 colon.
For experiment [9], the system named is NCI-H522 lung.
For experiment [10], the system named is PC-3 prostate.

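How tested: cells in 96-well plates exposed to compound for 48 hours at five concentrations. GI50 marks 50% less growth. TGI is the concentration that stops growth completely.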

`O=C(c1ccccc1)c1c(CC(O)c2ccncc2)n(C(=O)c2ccccc2)c2ccccc12` (configuration not stated): the TGI in experiment [1] came to 34 µM; in experiment [2], 39.7 µM; in [3], 40.5 µM; in experiment [4], 32.1 µM; in experiment [5], 31.5 µM; in experiment [6], 30.8 µM. Moreover, the results for the TGI in experiment [7], in [8] and in experiment [9] were 26 µM, 29.2 µM and 29.7 µM, respectively.
On to `O=C1OC(=O)c2c1c(-c1ccccc1)nc1ccccc21`, for which the TGI in experiment [1], in [3], in experiment [4], in experiment [5], in [6] and in experiment [7] was above 100 µM each time. Further, the TGI in [8] and in experiment [9] was above 100 µM in each case.
As for `C[CH2][Hg][S]c1ccccc1C(=O)O`, the GI50 is 0.801 µM in experiment [1]; 2.01 µM in [2]; 1.37 µM in experiment [3]; 1.7 µM in [4]; 1.36 µM in [5]; 3.7 µM in experiment [7]. Moreover, the GI50 was 1.31 µM in [8] and 3.88 µM in experiment [10]. In addition, the TGI in experiment [1] was 2.25 µM; in experiment [2], 7 µM; in experiment [3], 4.42 µM; in experiment [4], 3.32 µM; in experiment [5], 2.98 µM; in [7], 16.5 µM. Moreover, the TGI in [8] turned out to be 2.58 µM; in [10], 17.7 µM.
With `O=C(NCCNCCO)c1cccc2ccc(-c3ccccc3)nc12`, the TGI was 18.5 µM in [2]; 13.2 µM in [3]; 13 µM in experiment [4]; 13.8 µM in experiment [5]; 17.4 µM in experiment [6]; 18.9 µM in experiment [7]. Further, the TGI in experiment [8] worked out at 11.8 µM.
In the case of `CC(C)(C)c1cc2nc(c1)C(C(F)(F)F)(C(F)(F)F)OB(Br)OC2(C(F)(F)F)C(F)(F)F`, the TGI was 4.42 µM in [1]; 8.83 µM in experiment [3]; 7.31 µM in experiment [4]; 0.983 µM in experiment [5]; 3.4 µM in [7].
As to `N#CC1(C#N)C(c2ccccc2)C=CC12OCCCO2` (configuration not stated), the TGI is above 100 µM in experiment [1]; above 100 µM in [2]; above 100 µM in experiment [3]; 45.9 µM in experiment [4]; above 100 µM in experiment [5]; above 100 µM in experiment [6]. Moreover, the TGI was above 100 µM in experiment [7], above 100 µM in experiment [8] and 32.6 µM in experiment [9].
For the compound `CC1=C(CC2C(=O)N(c3ccccc3)S(=O)(=O)NC2C)C(=O)N(c2ccccc2)S(=O)(=O)N1C` (configuration not stated), the TGI in experiment [1], in experiment [2], in [3], in experiment [4], in experiment [5] and in experiment [6] was above 100 µM in each case. Besides, the TGI in experiment [7], in experiment [8] and in [9] was above 100 µM throughout.
Turning to `CCOc1ccc(NC(=O)CCc2nnc(SC)o2)cc1`, the TGI in [1], in [2], in [3], in experiment [4], in experiment [5] and in experiment [6] was above 100 µM throughout. Besides, the TGI in experiment [7], in [8] and in experiment [9] was above 100 µM in each case.
As for `Cc1cc2c(c(C(N)=O)c1C)-c1cc(Cl)cc(Cl)c1C2=O`, the TGI in [1], in experiment [2], in [3], in experiment [4], in experiment [5] and in [7] was above 100 µM each time. In addition, the TGI in experiment [8] and in experiment [9] was above 100 µM each time.
Turning to `Cc1cccc(NC(=O)/C(=N\N)C(c2cnc3ccc([N+](=O)[O-])cc3n2)[N+](=O)[O-])c1C` (configuration not stated), the TGI in experiment [1], in experiment [2], in [3], in [4], in experiment [5] and in experiment [6] was above 100 µM in each case. Moreover, the TGI in experiment [7], in [8] and in experiment [9] was above 100 µM in each case.
Take `COc1ccc(-c2[nH]c3ccccc3c2CCNS(=O)(=O)c2ccc(C)cc2)cc1`: the TGI in experiment [1], in [3], in experiment [4], in [5], in [6] and in experiment [7] was above 10 µM throughout. In addition, the TGI in experiment [8] and in experiment [9] was above 10 µM throughout.
As for `O=C(/C=C/c1ccc(Cl)c(Cl)c1)c1cccc2ccccc12`, the TGI in [1] turned out to be 32.4 µM; in experiment [2], 20.7 µM; in experiment [3] it was 24.8 µM; in experiment [4], 7.14 µM; in experiment [5], 25.5 µM; in experiment [6], 28.3 µM. The values for the TGI in [7], in [8] and in experiment [9] were 24.5 µM, 15.2 µM and 10 µM, respectively.
On to `COc1ccc(NC(=O)C(=O)/C=C(\O)c2ccccc2)cc1`, for which the TGI in [1], in [2], in experiment [3], in [5], in [7] and in [10] was above 10 µM each time.
As to `N#CCN1C(=O)c2cc([N+](=O)[O-])cc3cc([N+](=O)[O-])cc(c23)C1=O`, the TGI was found to be 28 µM in [1]; 28.4 µM in experiment [2]; 18.3 µM in experiment [3]; 31.8 µM in [4]; 29.2 µM in experiment [5]; 49.9 µM in experiment [6]. Further, the figures for the TGI in experiment [7] and in experiment [8] were above 100 µM and above 42.7 µM, respectively.
Regarding `ClC1=C(Cl)C(Cl)(Cl)c2c3c(c4c(c21)C(Cl)(Cl)C(Cl)=C4Cl)C(Cl)(Cl)C(Cl)=C3Cl`, the TGI in experiment [1], in [3], in experiment [4], in experiment [6], in experiment [7] and in experiment [8] was above 100 µM throughout. The same compound came in with a TGI in [9] above 100 µM.

The record behind these values is PubChem BioAssay (NCI).
